According to patent US10005824B2, “Selective PYY compounds and uses thereof” (Novo Nordisk A/S, priority 2015, dated 2018):

Assays:
human Y2 receptor = biological target: T1, human Y2 receptor (Homo sapiens, UniProt P49146); assay: Scintillation proximity assay (SPA) receptor binding, Y2
T1 construct: expressed in transfected cells; host or cells: CHO-K1 (membrane preparation)
T1 sequence (P49146 1-381): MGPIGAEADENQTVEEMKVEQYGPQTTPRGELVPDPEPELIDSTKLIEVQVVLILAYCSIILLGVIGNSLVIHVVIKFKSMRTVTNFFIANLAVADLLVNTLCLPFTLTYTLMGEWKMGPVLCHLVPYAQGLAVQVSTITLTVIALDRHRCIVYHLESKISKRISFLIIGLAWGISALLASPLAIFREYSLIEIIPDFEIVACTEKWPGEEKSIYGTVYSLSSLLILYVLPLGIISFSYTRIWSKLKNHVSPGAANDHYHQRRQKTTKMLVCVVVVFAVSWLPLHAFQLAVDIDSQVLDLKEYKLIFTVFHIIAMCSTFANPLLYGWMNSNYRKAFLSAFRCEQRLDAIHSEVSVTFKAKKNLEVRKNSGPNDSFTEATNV
Method: (§1) The purpose of this example is to test the in vitro binding of the PYY compounds to the Y1, Y2, Y4 and Y5 receptor subtypes, respectively. The receptor binding affinity is a measure of affinity of a compound for the human Y1, Y2, Y4 and Y5 receptor subtypes, respectively.
(§2) Scintillation Proximity Assay (SPA)
(§3) NPY-Receptor Expressing Cell Lines.
All cells were cultured at +37° C. in a humidified atmosphere with 5% CO2. […] CHO-K1 cells stably expressing the human Y2 receptor (P49146, NPY2R_HUMAN, Uniprot) were cultured in DMEM F-12 with 10% FBS, 1% P/S, 150 μg/ml Hygromycin B and 10 μg/ml Puromycin antibiotic. CHO-K1 cells stably expressing the human Y4 receptor (P50391, NPY4R_HUMAN, Uniprot) were cultured in DMEM F-12 with 10% FBS, 1% P/S, 10 μg/ml Puromycin. HEK-293 cells stably expressing the human Y5 receptor (Q15761, NPY5R_HUMAN, Uniprot) were cultured in DMEM F-12 medium containing 10% FBS, 1% Penicillin-Streptomycin, 250 μg/ml G418 and 1 μg/ml puromycin. […]
(§4) Plates were sealed and incubated at +25° C. for 2 hours in a plate shaker set at 400 rpm and thereafter centrifuged at 1500 rpm for 10 minutes prior to reading of luminescence on a microplate scintillation and luminescence counter. […] Displacement of radioligand was measured as reduction in luminescence and IC50 values were calculated by nonlinear regression analysis of sigmoidal dose-response curves.

human Y1 receptor = biological target: T2, human Y1 receptor (Homo sapiens, UniProt P25929); assay: Scintillation proximity assay (SPA) receptor binding, Y1
T2 construct: expressed in transfected cells; host or cells: BHK-21 clone 6-482-8, IPTG-induced (membrane preparation)
T2 sequence (P25929 1-384): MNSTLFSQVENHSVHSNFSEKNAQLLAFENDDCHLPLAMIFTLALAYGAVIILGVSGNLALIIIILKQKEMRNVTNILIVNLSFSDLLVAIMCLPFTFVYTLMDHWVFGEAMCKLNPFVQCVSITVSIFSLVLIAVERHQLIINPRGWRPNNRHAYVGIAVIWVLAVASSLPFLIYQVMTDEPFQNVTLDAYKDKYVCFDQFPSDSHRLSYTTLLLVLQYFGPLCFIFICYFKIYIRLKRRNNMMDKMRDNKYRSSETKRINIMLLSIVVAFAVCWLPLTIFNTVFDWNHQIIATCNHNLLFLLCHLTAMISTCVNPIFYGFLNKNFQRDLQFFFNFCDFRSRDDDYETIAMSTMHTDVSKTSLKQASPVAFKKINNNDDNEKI
Method: as §1, §2, §3
(§5) All cells were cultured at +37° C. in a humidified atmosphere with 5% CO2. […] CHO-K1 cells stably expressing the human Y2 receptor (P49146, NPY2R_HUMAN, Uniprot) were cultured in DMEM F-12 with 10% FBS, 1% P/S, 150 μg/ml Hygromycin B and 10 μg/ml Puromycin antibiotic. CHO-K1 cells stably expressing the human Y4 receptor (P50391, NPY4R_HUMAN, Uniprot) were cultured in DMEM F-12 with 10% FBS, 1% P/S, 10 μg/ml Puromycin. HEK-293 cells stably expressing the human Y5 receptor (Q15761, NPY5R_HUMAN, Uniprot) were cultured in DMEM F-12 medium containing 10% FBS, 1% Penicillin-Streptomycin, 250 μg/ml G418 and 1 μg/ml puromycin.
(§6) The homogenate was centrifuged at 35000 g using an ultracentrifuge for 10 minutes at +4° C. and the supernatant was discarded and fresh homogenization buffer added. Homogenization of the pellet was repeated a total of three times.
(§7) Human Y receptor SPA binding assay were performed in white 96-well plates in a total volume of 200 μl per well.
as §4

human Y4 receptor = biological target: T3, human Y4 receptor (Homo sapiens, UniProt P50391); assay: Scintillation proximity assay (SPA) receptor binding, Y4; details: Y4 Ki, membranes of CHO-K1 cells, [125I]-Pancreatic Polypeptide
T3 construct: expressed in transfected cells; host or cells: CHO-K1 (membrane preparation)
T3 sequence (P50391 whole entry): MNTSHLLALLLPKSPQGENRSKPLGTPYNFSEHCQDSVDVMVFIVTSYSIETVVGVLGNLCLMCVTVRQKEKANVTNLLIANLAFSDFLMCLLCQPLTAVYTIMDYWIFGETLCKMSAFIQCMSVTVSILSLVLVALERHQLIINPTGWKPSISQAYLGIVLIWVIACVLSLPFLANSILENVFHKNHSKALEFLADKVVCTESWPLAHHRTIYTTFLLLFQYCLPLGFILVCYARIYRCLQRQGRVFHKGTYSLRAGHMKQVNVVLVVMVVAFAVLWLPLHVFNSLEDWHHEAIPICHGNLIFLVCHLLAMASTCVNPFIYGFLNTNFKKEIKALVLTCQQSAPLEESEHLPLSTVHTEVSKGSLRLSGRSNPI
Method: as §1, §2, §3, §5, §6, §7, §4

[1] = Pharmacokinetic study in minipigs after i.v. administration; format: in vivo; details: female, Göttingen, minipig, plasma, iv, 15 nmol/kg; read-out: Half-life (t½) (converted)
Description: By terminal half-life is generally meant the period of time it takes to halve a certain plasma concentration, measured after the initial distribution phase.
After minimum 2 weeks of acclimatization two permanent central venous catheters were implemented in vena cava caudalis in each animal. After surgery the animals were in their normal individual pens during the pharmacokinetic experiments.
On day 1 the catheters are coupled to extension tubes, which will be removed at the end of day 1. […] Samples were kept on wet ice until centrifugation (10 min, 4° C., 1942 g).
Plasma concentration-time profiles was analysed by a non-compartmental pharmacokinetics analysis using Phoenix (Pharsight Inc., Mountain View, Calif., USA). Calculations were performed using individual concentration-time values from each animal.

Compound | Ki (human Y2 receptor) | Ki (human Y1 receptor) | Ki (human Y4 receptor) | half-life [1]
CC(C)CC(=O)N[C@@H](CCCNC(=N)N)C(=O)N1CCC[C@H]1C(=O)N[C@@H](CCC(=O)O)C(=O)N[C@@H](CCCCNC(=O)CC[C@H](NC(=O)CCCCCCCCCCCCCCCCC(=O)O)C(=O)O)C(=O)N1CCC[C@H]1C(=O)N[C@H](C(=O)N[C@@H](CCC(=O)O)C(=O)N[C@@H](CC(=O)O)C(=O)N[C@@H](C)C(=O)N[C@@H](CO)C(=O)N1CCC[C@H]1C(=O)N[C@@H](CCC(=O)O)C(=O)N[C@@H](CCC(=O)O)C(=O)N[C@@H](CC(C)C)C(=O)N[C@@H](CCC(N)=O)C(=O)N[C@@H](CCCNC(=N)N)C(=O)N[C@@H](Cc1ccc(O)cc1)C(=O)N[C@@H](Cc1ccc(O)cc1)C(=O)N[C@H](C(=O)N[C@@H](CO)C(=O)N[C@@H](CC(C)C)C(=O)N[C@@H](CCCNC(=N)N)C(=O)N[C@@H](Cc1c[nH]cn1)C(=O)N[C@@H](Cc1ccc(O)cc1)C(=O)N[C@@H](Cc1ccc(O)cc1)C(=O)N[C@@H](CC(N)=O)C(=O)N[C@@H](Cc1c[nH]c2ccccc12)C(=O)N[C@@H](CC(C)C)C(=O)N[C@H](C(=O)N[C@@H](CCCNC(=N)N)C(=O)N[C@@H](CCC(N)=O)C(=O)N[C@@H](CCCNC(=N)N)C(=O)N[C@@H](Cc1ccc(O)cc1)C(N)=O)[C@@H](C)O)C(C)C)[C@@H](C)O [Compound 44, N{alpha-4}-(3-Methylbutanoyl)-N{Epsilon-7}-[(4S)-4-carboxy-4-(17-carboxy-heptadecanoylamino)butanoyl]-[Arg4,Lys7,Thr9,Gln18,Val22,Tyr28,Trp30,Leu31]hPYY(4-36)] | 0.00033 µM | > 10 µM | – | –
CC(C)CC(=O)N[C@@H](CCCNC(=N)N)C(=O)N1CCC[C@H]1C(=O)N[C@@H](CCC(=O)O)C(=O)N[C@@H](C)C(=O)N1CCC[C@H]1C(=O)NCC(=O)N[C@@H](CCCCNC(=O)CC[C@H](NC(=O)COCCOCCNC(=O)CC[C@H](NC(=O)CCCCCCCCCCCCCCCCC(=O)O)C(=O)O)C(=O)O)C(=O)N[C@@H](CC(=O)O)C(=O)N[C@@H](C)C(=O)N[C@@H](CO)C(=O)N1CCC[C@H]1C(=O)N[C@@H](CCC(=O)O)C(=O)N[C@@H](CCC(=O)O)C(=O)N[C@@H](CC(C)C)C(=O)N[C@@H](CCC(N)=O)C(=O)N[C@@H](CCCNC(=N)N)C(=O)N[C@@H](Cc1ccc(O)cc1)C(=O)N[C@@H](Cc1ccc(O)cc1)C(=O)N[C@@H](CCC(=O)O)C(=O)N[C@@H](CO)C(=O)N[C@@H](CC(C)C)C(=O)N[C@@H](CCCNC(=N)N)C(=O)N[C@@H](Cc1c[nH]cn1)C(=O)N[C@@H](Cc1ccc(O)cc1)C(=O)N[C@@H](Cc1ccc(O)cc1)C(=O)N[C@@H](CC(N)=O)C(=O)N[C@@H](Cc1c[nH]c2ccccc12)C(=O)N[C@@H](CC(C)C)C(=O)N[C@H](C(=O)N[C@@H](CCCNC(=N)N)C(=O)N[C@@H](CCC(N)=O)C(=O)N[C@@H](CCCNC(=N)N)C(=O)N[C@@H](Cc1ccc(O)cc1)C(N)=O)[C@@H](C)O [Compound 50, N{alpha-4}-(3-Methylbutanoyl)-N{Epsilon-10}-[(4S)-4-carboxy-4-[[2-[2-[2-[[(4S)-4-carboxy-4-(17-carboxyheptadecanoylamino)butanoyl]amino]ethoxy]ethoxy]-acetyl]amino]butanoyl]-[Arg4,Lys10,Gln18,Glu22,Tyr28,Trp30,Leu31]-PYY(4-36)] | – | > 10 µM | > 10 µM | 94 h
CC(C)CC(=O)N[C@@H](CCCNC(=N)N)C(=O)N1CCC[C@H]1C(=O)N[C@@H](CCC(=O)O)C(=O)N[C@@H](C)C(=O)N1CCC[C@H]1C(=O)N1CCC[C@H]1C(=O)N[C@@H](CCCCNC(=O)CC[C@H](NC(=O)COCCOCCNC(=O)CC[C@H](NC(=O)CCCCCCCCCCCCCCCS(=O)(=O)O)C(=O)O)C(=O)O)C(=O)N[C@@H](CC(=O)O)C(=O)N[C@@H](C)C(=O)N[C@@H](CO)C(=O)N1CCC[C@H]1C(=O)N[C@@H](CCC(=O)O)C(=O)N[C@@H](CCC(=O)O)C(=O)N[C@@H](CC(C)C)C(=O)N[C@@H](CCC(N)=O)C(=O)N[C@@H](CCCNC(=N)N)C(=O)N[C@@H](Cc1ccc(O)cc1)C(=O)N[C@@H](Cc1ccc(O)cc1)C(=O)N[C@@H](C)C(=O)N[C@@H](CO)C(=O)N[C@@H](CC(C)C)C(=O)N[C@@H](CCCNC(=N)N)C(=O)N[C@@H](Cc1c[nH]cn1)C(=O)N[C@@H](Cc1ccc(O)cc1)C(=O)N[C@@H](Cc1ccc(O)cc1)C(=O)N[C@@H](CC(N)=O)C(=O)N[C@@H](Cc1c[nH]c2ccccc12)C(=O)N[C@@H](CC(C)C)C(=O)N[C@H](C(=O)N[C@@H](CCCNC(=N)N)C(=O)N[C@@H](CCC(N)=O)C(=O)N[C@@H](CCCNC(=N)N)C(=O)N[C@@H](Cc1ccc(O)cc1)C(N)=O)[C@@H](C)O [Compound 69, N{alpha-4}-(3-Methylbutanoyl)-N{Epsilon-10}-[(4S)-4-carboxy-4-[[2-[2-[2-[[(4S)-4-carboxy-4-(16-sulfohexadecanoylamino)butanoyl]amino]ethoxy]-ethoxy]acetyl]amino]butanoyl]-[Arg4,Pro9,Lys10,Gln18,Tyr28,Trp30,Leu31]-PYY-(4-36)] | – | > 10 µM | 5.69 µM | 64 h
